BigSolDB 2.1

CCCN(CCC)S(=O)(=O)c1ccc(C(=O)O)cc1
solubility (mole fraction)
Settings	283.15 K	288.15 K	293.15 K	298.15 K	303.15 K	308.15 K	313.15 K	318.15 K	323.15 K
in MTBE	0.00461	0.00531	0.00665	0.00801	0.00953	0.0111	0.0129	0.0156	0.0185
in acetone	0.013	0.0148	0.0176	0.0201	0.0234	0.0268	0.0312	0.035	0.0409
in ethanol	0.00506	0.00615	0.00797	0.00961	0.0117	0.015	0.0191	0.023	0.0279
in ethyl acetate	0.00382	0.00459	0.00548	0.00659	0.00821	0.00992	0.0118	0.0138	0.0164
in isobutanol	0.00363	0.00453	0.00573	0.00716	0.00904	0.0108	0.013	0.0158	0.0199
in isopropanol	0.00627	0.00759	0.0089	0.0106	0.0122	0.015	0.018	0.021	0.0258
in methanol	0.00365	0.00485	0.00609	0.00804	0.0105	0.0132	0.0166	0.0202	0.0248
in methyl acetate	0.00449	0.00544	0.00656	0.00794	0.00945	0.0112	0.0129	0.0152	0.0179
in n-butanol	0.00744	0.0089	0.0109	0.0131	0.0158	0.0186	0.022	0.026	0.0303
in n-butyl acetate	0.00308	0.0038	0.00474	0.00562	0.00653	0.00773	0.00972	0.0118	0.014
in n-pentanol	0.00879	0.0103	0.0123	0.0146	0.0171	0.0194	0.0228	0.0264	0.031
in n-propanol	0.00544	0.00656	0.00841	0.0108	0.0135	0.0163	0.0207	0.0246	0.0289
